Reference: the supplement of paper PMC10307832

Experiments:
Experiment in all cases: relative viability (nuclei count vs DMSO), 5 days (fraction); higher = more cells survive
NVP-TAE684 + Navitoclax = compound: COc1cc(N2CCC(N3CCN(C)CC3)CC2)ccc1Nc1ncc(Cl)c(Nc2ccccc2S(=O)(=O)C(C)C)n1 [NVP-TAE684] + CC1(C)CCC(c2ccc(Cl)cc2)=C(CN2CCN(c3ccc(C(=O)NS(=O)(=O)c4ccc(N[C@H](CCN5CCOCC5)CSc5ccccc5)c(S(=O)(=O)C(F)(F)F)c4)cc3)CC2)C1 [Navitoclax] (partner 0.5 µM)
In short: (§1)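 Lung cancer cell lines, seeded in 1536-well plates, were treated the following day by pin tool with a single drug or with five library-drug doses (not always all listed) in √10 steps on top of a fixed anchor-drug dose. Cells were fixed and nuclei stained in one step after 5 days, and nuclei were counted. Relative viability is the nuclei count for treated wells divided by that for vehicle wells, reported as medians of duplicate plates.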

Vandetanib + Olaparib = compound: COc1cc2/c(=N/c3ccc(Br)cc3F)nc[nH]c2cc1OCC1CCN(C)CC1 [Vandetanib] + O=C(c1cc(Cc2n[nH]c(=O)c3ccccc23)ccc1F)N1CCN(C(=O)C2CC2)CC1 [Olaparib] (partner 8 µM)
In short: as §1

NVP-TAE684 + Pemetrexed = compound: COc1cc(N2CCC(N3CCN(C)CC3)CC2)ccc1Nc1ncc(Cl)c(Nc2ccccc2S(=O)(=O)C(C)C)n1 [NVP-TAE684] + Nc1nc2[nH]cc(CCc3ccc(C(=O)N[C@@H](CCC(=O)O)C(=O)O)cc3)c2c(=O)[nH]1 [Pemetrexed] (partner 0.2 µM)
In short: as §1

CUDC-101 + Navitoclax = compound: C#Cc1cccc(Nc2ncnc3cc(OC)c(OCCCCCCC(=O)NO)cc23)c1 [CUDC-101] + CC1(C)CCC(c2ccc(Cl)cc2)=C(CN2CCN(c3ccc(C(=O)NS(=O)(=O)c4ccc(N[C@H](CCN5CCOCC5)CSc5ccccc5)c(S(=O)(=O)C(F)(F)F)c4)cc3)CC2)C1 [Navitoclax] (partner 0.5 µM)
In short: as §1

NVP-TAE684 + Crizotinib = compound: COc1cc(N2CCC(N3CCN(C)CC3)CC2)ccc1Nc1ncc(Cl)c(Nc2ccccc2S(=O)(=O)C(C)C)n1 [NVP-TAE684] + C[C@@H](Oc1cc(-c2cnn(C3CCNCC3)c2)cnc1N)c1c(Cl)ccc(F)c1Cl [Crizotinib] (partner 1 µM)
In short: as §1

| Cell Line | relative viability (NVP-TAE684 + Navitoclax; first compound 0.2 µM) | relative viability (NVP-TAE684 + Navitoclax; first compound 0.6325 µM) | relative viability (NVP-TAE684 + Navitoclax; first compound 2 µM) | relative viability (Vandetanib + Olaparib; first compound 0.02 µM) | relative viability (Vandetanib + Olaparib; first compound 0.06325 µM) | relative viability (Vandetanib + Olaparib; first compound 0.2 µM) | relative viability (Vandetanib + Olaparib; first compound 0.6325 µM) | relative viability (Vandetanib + Olaparib; first compound 2 µM) | relative viability (NVP-TAE684 + Pemetrexed; first compound 0.2 µM) | relative viability (NVP-TAE684 + Pemetrexed; first compound 0.6325 µM) | relative viability (NVP-TAE684 + Pemetrexed; first compound 2 µM) | relative viability (CUDC-101 + Navitoclax; first compound 0.01 µM) | relative viability (CUDC-101 + Navitoclax; first compound 0.03162 µM) | relative viability (CUDC-101 + Navitoclax; first compound 0.1 µM) | relative viability (CUDC-101 + Navitoclax; first compound 0.3162 µM) | relative viability (CUDC-101 + Navitoclax; first compound 1 µM) | relative viability (NVP-TAE684 + Crizotinib; first compound 0.2 µM) | relative viability (NVP-TAE684 + Crizotinib; first compound 0.6325 µM) | relative viability (NVP-TAE684 + Crizotinib; first compound 2 µM) |
| --- | --- | --- | --- | --- | --- | --- | --- | --- | --- | --- | --- | --- | --- | --- | --- | --- | --- | --- | --- |
| NCI-H2126 | 0.951 | 0.84 | 0.621 | 0.883 | 0.888 | 0.818 | 0.923 | 0.88 | 0.734 | 0.67 | 0.554 | 0.889 | 0.86 | 0.852 | 0.815 | 0.649 | 1.08 | 1.07 | 0.726 |
| LU99A | 0.802 | 0.769 | 0.362 | 0.251 | 0.301 | 0.173 | 0.209 | 0.272 | 0.192 | 0.147 | 0.194 | 0.857 | 1.07 | 0.728 | 0.642 | 0.159 | 0.651 | 0.576 | 0.262 |
| LXF-289 | 0.966 | 0.966 | 0.803 | 1.01 | 1.05 | 0.682 | 1 | 1 | 0.874 | 0.983 | 0.805 | 0.952 | 0.966 | 0.911 | 0.932 | 0.753 | 0.852 | 0.791 | 0.706 |
| CAL-12T | 1.35 | 1.18 | 0.407 | 0.663 | 0.692 | 0.765 | 0.676 | 0.65 | 0.973 | 1.16 | 0.492 | 1.22 | 1.23 | 1.28 | 1.35 | 1.33 | 0.63 | 0.444 | 0.282 |
| SK-MES-1 | 1.29 | 1.22 | 0.78 | 0.71 | 0.676 | 0.708 | 0.606 | 0.424 | 0.999 | 0.855 | 0.686 | 1.27 | 1.37 | 1.28 | 1.16 | 1.12 |  | 0.983 | 0.804 |
| SW 1573 | 0.904 | 0.959 | 0.737 | 0.434 | 0.416 | 0.393 | 0.521 | 0.489 | 0.843 | 0.732 | 0.396 | 1.2 | 0.897 | 0.951 | 1.23 | 0.901 | 0.971 | 0.805 | 0.673 |
| NCI-H1975 | 1.06 |  | 0.513 | 0.807 | 0.733 | 0.795 | 0.684 | 0.716 | 0.297 | 0.283 | 0.236 | 1.32 | 1.09 | 1.19 | 1.27 | 1.13 | 0.978 | 1.1 | 0.227 |
| NCI-H647 | 1.4 | 1.06 | 1.16 | 0.626 | 0.633 | 0.547 | 0.502 | 0.454 | 0.18 | 0.148 | 0.106 | 1.2 | 1.01 | 1.11 | 1.09 | 0.844 | 0.959 | 0.983 | 0.172 |
| NCI-H322M | 1.21 | 1.3 | 1.2 | 0.76 | 0.709 | 0.718 | 0.681 | 0.585 | 0.635 | 0.593 | 0.479 | 1.21 | 1.18 | 0.954 | 1.08 | 0.795 | 0.973 | 0.758 | 0.845 |
